The source of these data is PMC2967639 (Drug and alcohol dependence, 2010).

Some results are limits rather than exact numbers.

For data set [1], the system named is male ICR mice. As to the kind of experiment: mouse tetrad assay. In kind it is in vivo.
The test system of data set [2] is LPS-induced paw edema. As to the kind of experiment: LPS-induced paw edema model. In kind it is in vivo, mouse. Conditions: for LPS-induced paw edema (change in paw thickness of LPS-injected paw): i.p. 1 h before, 6 and 23 h after LPS, dose-response, measured 24 h, Figure 4A; for paw thickness of the LPS-injected paw, post hoc vs vehicle: 10, 30 and 100 mg/kg CBC, 10 and 30 mg/kg THC; for paw thickness of the saline-injected (contralateral) paw: data not shown; for effect of antagonist given alone on LPS paw edema: 3 mg/kg i.p. 30 min before each vehicle injection.

The target in data set [3] is CB1 receptor. Conditions: ref Booker et al., 2009; cited from earlier work.
The nature of data set [4]: blood and brain tissue concentrations of THC and CBC by GC/MS. In kind it is in vivo, mouse.
The conditions of data set [5]: ref Hunt et al., 1980; Widman et al., 1974; cited from earlier work.
In data set [6] the test system is LPS-induced paw edema. The conditions noted are these: ref Naidu et al., under review; cited from earlier work.
In data set [7] the test system is wild type mice. Conditions: i.v., ref Smith et al., 1994; cited from earlier work.

With `CCCCCc1cc(O)c2c(c1)OC(C)(CCC=C(C)C)C=C2` (centres unmarked) [CBC, cannabichromene], the “potency in the tetrad relative to THC” value in data set [1] (i.v.) was “substantially less potent than THC”. For the same compound, the “LPS-induced paw edema (change in paw thickness of LPS-injected paw)” value in data set [2] is given as “dose-related decreases”. Also, in data set [2] (i.p.), the “paw thickness of the LPS-injected paw, post hoc vs vehicle” value is listed as “significant decreases” and the “paw thickness of the saline-injected (contralateral) paw” value is on record as “neither drug affected the paw thickness”. Also, in data set [3], the Ki (usually a measure of affinity in units of concentration, obtained from inhibition or displacement) was more than 10 µM. In addition, in data set [4] (30 or 100 mg/kg CBC i.v. with THC 0.3 mg/kg i.v.), the “effect of CBC on THC levels in brain” value was “significantly elevated”. Moreover, the “CBC levels in blood with increasing doses of CBC” value in data set [4] (CBC 3-100 mg/kg i.v., with or without THC 0.3 mg/kg, 30 min, Figure 3C) is “significant increases”. Besides, in data set [4] (CBC 3-100 mg/kg i.v., with or without THC 0.3 mg/kg, 30 min, Figure 3D), the “CBC levels in brain with increasing doses of CBC” value was “significant increases”.
On to `CCCCCc1cc(O)c2c(c1)OC(C)(C)[C@@H]1CCC(C)=C[C@@H]21` [THC, Δ^9-tetrahydrocannabinol], for which the “activity in the tetrad at threshold dose” value in data set [1] (THC 0.3 mg/kg i.v.) was “inactive”. For the same compound, in data set [2], the “LPS-induced paw edema (change in paw thickness of LPS-injected paw)” value is on record as “dose-related decreases”. Besides, in data set [2] (i.p.), the “paw thickness of the LPS-injected paw, post hoc vs vehicle” value is “significant decreases” and the “paw thickness of the saline-injected (contralateral) paw” value was “neither drug affected the paw thickness”. In data set [2] (individual dose-response curves, i.p.), the “ED50 (95% confidence intervals), LPS-induced paw edema” value was 4.0 (2.7 to 5.9) mg/kg. For the same compound, the “effect of THC on CBC blood and brain levels” value in data set [4] (THC 0.3 mg/kg i.v. 10 min after CBC 3-100 mg/kg i.v.) is given as “no effects”. In data set [5], the “THC in blood bound to plasma” value is on record as “About 90%”, the “THC in blood bound to red blood cells” value is given as 10% and the “plasma THC bound to lipoproteins” value was 95 – 99%.
With `NC(=O)c1cccc(-c2cccc(OC(=O)NC3CCCCC3)c2)c1` [URB597], the “effect on LPS induced paw edema” value in data set [6] is on record as “ameliorated LPS induced paw edema”.
As for `Cc1c(C(=O)c2cccc3ccccc23)c2cccc3c2n1[C@H](CN1CCOCC1)CO3` [WIN55,212-2], in data set [6], the “effect on LPS induced paw edema” value is recorded as “ameliorated LPS induced paw edema”.
Regarding `CCCCC/C=C\C/C=C\C/C=C\C/C=C\CCCC(=O)NCCO` [anandamide], in data set [7], the “fold less potent in producing antinociception than hypomotility, catalepsy and hypothermia” value is reported as 3 – 4 fold.
For the compound `C[C@@H]1C[C@H]2[C@@H]3CCC4=CC(=O)C=C[C@]4(C)[C@@]3(F)[C@@H](O)C[C@]2(C)[C@@]1(O)C(=O)CO` [dexamethasone], the “effect on LPS induced paw edema” value in data set [6] is reported as “ameliorated LPS induced paw edema”.
Consider `Cc1c(C(=O)NN2CCCCC2)nn(-c2ccc(Cl)cc2Cl)c1-c1ccc(Cl)cc1` [rimonabant], for which the “blockade of the tetrad effects of CBC” value in data set [1] (rimonabant 3 mg/kg 10 min before CBC 100 mg/kg i.v.) is given as “failed to block the pharmacological effects of CBC”. Also, in data set [1] (rimonabant 3 mg/kg, 10 min before vehicle or CBC 100 mg/kg), the “main effect of rimonabant on the four tetrad measures” value is “no significant main effects”. In addition, the “effect of antagonist given alone on LPS paw edema” value in data set [2] is recorded as “Neither rimonabant nor SR144528 given alone affected LPS paw edema”. For the same compound, the “antagonism of the anti-edematous effects of THC” value in data set [2] (antagonist 3 mg/kg 30 min before each THC 10 mg/kg i.p. injection, Figure 4B) is “but not rimonabant”.
For the compound SR144528, in data set [2], the “effect of antagonist given alone on LPS paw edema” value is listed as “Neither rimonabant nor SR144528 given alone affected LPS paw edema”.
